Measurements as given in publication doi:10.1101/2024.05.17.594634, “Protein Structure Inspired Drug Discovery” (bioRxiv, 2024).

What was measured:
human CD34+ stem cells = experiment: Bone marrow stem cell (hematopoietic) colony formation assay; assay type: cell-based
Procedure: In parallel with measuring growth inhibition of cancer cell growth, we measured effect on human hematopoietic stem cells. Hematopoietic stem cells reside in the bone marrow and are the source of mature cells present in blood.[66] Bone marrow is one of the most sensitive organs in the body to drug toxicity, especially so for anticancer drugs where it can approach 100%.[67–69] Bone marrow toxicity was measured by performing hematopoietic colony formation assays on human CD34+ stem cells. The stem cell nature of this assay permitted assessment of trilineage colony formation: granulocytic (white blood cells), erythrocytic (red blood cells) and megakaryocytic (platelets), measured by the formation of CFU-GM (colony-forming-granulocyte-macrophage), BFU-E (erythroid burst-forming unites) and CFU-GEMM (colony-forming unit-granulocyte, erythrocyte, monocyte, megakaryocyte) colonies, respectively. Two measurements were taken. Total colonies at eight days were measured, thereby matching the eight-day time frame of cancer cell colony formation assays. At fourteen days, individual colonies have differentiated, permitting quantification of each lineage. Human hematopoietic stem cell trilineage colony formation assays were performed as previously described by us.[65] Briefly, human cord blood CD34+ cells (catalog #: 70008.5) were purchased from StemCell Technology Inc., and seeded at 1 × 10^4 cells per 35 mm dish. Cells were cultured in MethoCult™ Express (StemCell Technologies, Inc.) semisolid media, per manufacturer’s instructions, in the presence of compound or vehicle control. At eight days colonies, i.e., groups of ≥ 10 cells, were counted. At fourteen days, individual colonies of BFU-E, CFU-GM and CFU-GEMM were identified based on manufacturers’ morphologic characterization criteria. Assays were run in replicates of N = 2; some were run in replicates of N = 3, as denoted.

HT29 colon cancer cells = experiment: Eight-day colony formation assay, HT29; assay type: cell-based, human
Procedure: We sought to identify compounds that would inhibit the growth of cancer cells, but that also did so selectively. Inhibition of cancer cell growth is a highly sought after attribute of anticancer agents. This was assessed by measuring the ability of a compound to inhibit cell growth in eight-day colony formation assays, examining concentrations ranging from 0.017 to 40 μM. Breast, colon, lung and prostate cancer are four of the most common causes of cancer in the United States, are major causes of cancer cell death, and were examined.[64] Two cell lines for each cancer type were assessed: A549 (adenocarcinoma) and H226 (squamous carcinoma) for lung, MCF-7 (estrogen receptor [ER] positive) and MDA-MB-231 (ER negative) for breast, LNCaP (androgen receptor [AR] positive) and PC3-M (AR negative) for prostate, and HCT116 (wild type p53, mutated KRAS) and HT29 (p53 mutant) for colon.[65]
In considering effect on cancer cells, for each compound and each cell line tested we calculated the efficacy ratio, i.e., efficacy ratio = (percent of remaining cancer cell colonies)/(percent of remaining bone marrow colonies), at 8 days after treatment with 40 μM compound (S4 Fig). We considered those with an efficacy ratio below 0.5 as active and at least partially selective. The stringency of this is highlighted by considering the effect of 5FU on colon cancer, where it is frequently used clinically in proven curative settings, as well as proven life prolonging settings.[70, 71] […] Even at 5.7 μM, where 5FU is toxic to bone marrow, with hematopoietic colony formation at 38% of control, the efficacy ratio for HT29 cells has only dropped to 0.52. […] It can be seen that compounds segregate to protein sites. Specifically, of 10 compounds meeting this activity criteria (i.e., efficacy ratio <0.5), 3 were directed at the Dxr2 site, 3 at FolC2, 2 at FolC1, 1 at Dxr1 and 1 at TYLT.
(§1) Eight-day colony formation assays of cancer cells were performed as described by us.[87] Briefly, 0.5–1.0 × 10^3 cells were seeded into a 12 well plate, after 24 hours compound added and eight days later colonies (of 3 or more cells) were scored after trypan blue staining. Conditions were in replicates of N = 2. All compounds were stored under desiccated conditions in a sealed container at minus 20°C upon arrival. One day prior to use, they were placed into DMSO, stored at […] as stock solutions, thawed just prior to use, and not reused.

human melanoma M14 cells = experiment: Eight-day colony formation assay, M14; assay type: cell-based; conditions: for IC50: M14, eight-day assay, mean ± SEM
Procedure: (§2) We next evaluated the effect of Dxr2-017 on human melanoma M14 and SK-MEL-5 cell lines in eight-day assays (Fig 8A).
(§3) Fig 8. Dxr2-017 inhibits melanoma cell growth through induction of anoikis. (A) Inhibition of melanoma cell growth. Cells were treated with different concentrations of Dxr2-017 and formation of colonies at eight days depicted. Data are expressed as percent of untreated control and are the mean ± SEM (N=3 replicates) of a single experiment. (B) No effect on cycle progression. M14 and SK-MEL-5 cells were treated for 8 days with 20 and 50 nM Dxr2-017, respectively, and phase of cell cycle determined by flow cytometry. Data are the mean ± SEM (N=3). *denotes P-value ≤0.05. (C) Transition to floating cells. Cells were treated for three days with different Dxr2-017 concentrations. Depicted are representative light photomicrographs at 20X; scale bar is150 μm. Blue and green arrows denote adherent and floating cells, respectively. (D) Cleaved caspase 3 is induced in floating cells. Cells were treated for 3 days, cell lysate from only adherent cells, or from adherent and floating cells combined, was probed by Western blot for cleaved caspase 3. All experiments were repeated at separate times, yielding similar results.
as §1

[1] = tested on: human melanoma SK-MEL-5 cells; experiment: Eight-day colony formation assay, SK-MEL-5; assay type: cell-based
Procedure: as §2
as §3, with “Cells were treated for 3 days, cell lysate from only adherent cells, or from adherent and floating cells combined, was probed by Western blot for cleaved caspase 3. All experiments were repeated at separate times, yielding similar results.” left out
Eight-day colony formation assays of cancer cells were performed as described by us.[87] Briefly, 0.5–1.0 × 10^3 cells were seeded into a 12 well plate, after 24 hours compound added and eight days later colonies (of 3 or more cells) were scored after trypan blue staining. […]

SK-MEL-5 cells = experiment: Cell cycle analysis by flow cytometry, SK-MEL-5; assay type: cell-based, human; conditions: 50 nM, eight days
Procedure: as §3
A total of 1 × 10^4 M14 cells and 1 × 10^4 SK-MEL-5 cells were seeded into 10 cm culture dishes. […] Cells were analyzed by flow cytometry (FACSCalibur3 analyzer, BD Biosciences), and the percentage of cells within G0/G1, S, and G2/M phases were determined via analysis using Modfit LT 4.0.5.

mean number of colonies, % of control, 14 day (human CD34+ stem cells; 40 μM compound, 14 days, mean N=2): 57 % of control
mean number of colonies, % of control, 8 day (human CD34+ stem cells; 40 μM compound, total colonies at 8 days, mean N=2): 70 % of control
decrease of BFU-E compared to control (human CD34+ stem cells; 40 μM, 14 day): 97.1 ± 4.1%
decrease of CFU-G/M compared to control (human CD34+ stem cells; 40 μM, 14 day): 49.8 ± 0.0%
increase of CFU-GEMM compared to control (human CD34+ stem cells; 40 μM, 14 day): 16.1 ± 12.0%
inhibition of 14-day total colony formation (human CD34+ stem cells; 40 μM, 14 day): 42.6 ± 5.8%
IC50 (human melanoma M14 cells; Homo sapiens, M14, 192 h): 19 nM
IC50 (human melanoma M14 cells): 19.7 ± 7.4 nM
IC50 ([1]; Homo sapiens, 192 h, SK-MEL-5, eight-day assay, mean ± SEM): 51.7 ± 16.4 nM
SMILES: c1ccc2sc(-c3ccc(CNc4ccc5nnnn5n4)o3)nc2c1 [Dxr2-017]
efficacy ratio (cancer cell colonies to bone marrow colonies at 8 days) (HT29 colon cancer cells; 5.7 μM): 0.03
efficacy ratio (cancer cell colonies to bone marrow colonies at 8 days) (HT29 colon cancer cells; 40 μM): 0.00
inhibition at 0.12 µM (HT29 colon cancer cells; Homo sapiens, HT-29, 0.12 μM, mean ± SD, read-out: inhibition of colony formation compared to control): 91.1 ± 4.8%
fold efficacy versus bone marrow stem cells (human melanoma M14 cells; M14 IC50 compared to 40 μM eight-day bone marrow treatment): over 2100 fold
fold efficacy versus bone marrow stem cells ([1]; SK-MEL-5 IC50 compared to 40 μM eight-day bone marrow treatment): > 750 fold
change in cell cycle parameters (SK-MEL-5 cells): little-to-no change in cell cycle parameters
